System: P12-Ichikawa
Assay: cell viability relative to DMSO control; higher = less cytotoxic
Conditions: 48 h
Outline: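 Viability values are per-plate percentages of DMSO wells, with background from cell-free wells. Library compounds in DMSO were pin-dosed, in an 11-point threefold series from 47 μM to 0.79 nM, onto NOMO1 or SEM (500 cells/well) or P12-Ichikawa (1000 cells/well) leukemia cells in 1536-well plates (5 μl). Those cells had been adapted for at least four passages in each medium, and CellTiter-Glo One luminescence was read after 48 h at 37°C.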

[1] = HPLM + 10% dialyzed FBS, 0.000781 µM
[2] = HPLM + 10% dialyzed FBS, 0.00234 µM
[3] = HPLM + 10% dialyzed FBS, 0.00702 µM
[4] = HPLM + 10% dialyzed FBS, 0.0211 µM
[5] = HPLM + 10% dialyzed FBS, 0.0632 µM
[6] = HPLM + 10% dialyzed FBS, 0.19 µM
[7] = HPLM + 10% dialyzed FBS, 0.569 µM
[8] = HPLM + 10% dialyzed FBS, 1.71 µM
[9] = HPLM + 10% dialyzed FBS, 5.12 µM
[10] = HPLM + 10% dialyzed FBS, 15.4 µM
[11] = HPLM + 10% dialyzed FBS, 46.1 µM
[12] = RPMI 5 mM glucose + 10% FBS, 0.000781 µM
[13] = RPMI 5 mM glucose + 10% FBS, 0.00234 µM
[14] = RPMI 5 mM glucose + 10% FBS, 0.00702 µM
[15] = RPMI 5 mM glucose + 10% FBS, 0.0211 µM
[16] = RPMI 5 mM glucose + 10% FBS, 0.0632 µM
[17] = RPMI 5 mM glucose + 10% FBS, 0.19 µM
[18] = RPMI 5 mM glucose + 10% FBS, 0.569 µM
[19] = RPMI 5 mM glucose + 10% FBS, 1.71 µM
[20] = RPMI 5 mM glucose + 10% FBS, 5.12 µM
[21] = RPMI 5 mM glucose + 10% FBS, 15.4 µM
[22] = RPMI 5 mM glucose + 10% FBS, 46.1 µM
[23] = RPMI 5 mM glucose + 10% dialyzed FBS, 0.000781 µM
[24] = RPMI 5 mM glucose + 10% dialyzed FBS, 0.00234 µM
[25] = RPMI 5 mM glucose + 10% dialyzed FBS, 0.00702 µM
[26] = RPMI 5 mM glucose + 10% dialyzed FBS, 0.0211 µM
[27] = RPMI 5 mM glucose + 10% dialyzed FBS, 0.0632 µM
[28] = RPMI 5 mM glucose + 10% dialyzed FBS, 0.19 µM
[29] = RPMI 5 mM glucose + 10% dialyzed FBS, 0.569 µM
[30] = RPMI 5 mM glucose + 10% dialyzed FBS, 1.71 µM
[31] = RPMI 5 mM glucose + 10% dialyzed FBS, 5.12 µM
[32] = RPMI 5 mM glucose + 10% dialyzed FBS, 15.4 µM
[33] = RPMI 5 mM glucose + 10% dialyzed FBS, 46.1 µM

CN(C)[C@@H](CCOc1cccc2ccccc12)c1ccccc1 was tested, and the cell viability [1] was 112%, the cell viability [2] was 111% and the cell viability [3] was 113%. The cell viability [4] was 115%, the cell viability [5] was 115% and the cell viability [6] was 112%. For the same compound, the cell viability [7] was 109%, the cell viability [8] was 104% and the cell viability [9] was 101%. For the same compound, the cell viability [10] was 104%, the cell viability [11] was 88.5% and the cell viability [12] was 116%. For the same compound, the cell viability [13] was 118%, the cell viability [14] was 131% and the cell viability [15] was 122%. The cell viability [16] was 113%, the cell viability [17] was 116% and the cell viability [18] was 115%. For the same compound, the cell viability [19] was 101%, the cell viability [20] was 92.2% and the cell viability [21] was 110%. It also gave a cell viability [22] of 73.1%, a cell viability [23] of 111% and a cell viability [24] of 102%. The cell viability [25] was 114%, the cell viability [26] was 110% and the cell viability [27] was 115%. It also gave a cell viability [28] of 105%, a cell viability [29] of 111% and a cell viability [30] of 108%. For the same compound, the cell viability [31] was 98.2%, the cell viability [32] was 106% and the cell viability [33] was 67.1%.
Compound C[N]1N=CC=C1C/2=C(\C)N(C(=O)C(=C2)/C(=O)NCC3=NC=C(C=C3)[S+](C)([O-])=O)C4=CC=CC(=C4)C(F)(F)F has a cell viability [1] of 107%, a cell viability [2] of 104% and a cell viability [3] of 106%. It also gave a cell viability [4] of 104%, a cell viability [5] of 107% and a cell viability [6] of 107%. For the same compound, the cell viability [7] was 105%, the cell viability [8] was 101% and the cell viability [9] was 98.3%. It also gave a cell viability [10] of 96.8%, a cell viability [11] of 88.5% and a cell viability [12] of 105%. For the same compound, the cell viability [13] was 102%, the cell viability [14] was 109% and the cell viability [15] was 109%. For the same compound, the cell viability [16] was 112%, the cell viability [17] was 93% and the cell viability [18] was 106%. For the same compound, the cell viability [19] was 97.3%, the cell viability [20] was 92% and the cell viability [21] was 91.1%. For the same compound, the cell viability [22] was 99.2%, the cell viability [23] was 108% and the cell viability [24] was 105%. It also gave a cell viability [25] of 112%, a cell viability [26] of 105% and a cell viability [27] of 106%. The cell viability [28] was 95%, the cell viability [29] was 110% and the cell viability [30] was 103%. For the same compound, the cell viability [31] was 102%, the cell viability [32] was 91.7% and the cell viability [33] was 97.5%.
In the case of CN(C(Cc1ccc(O[S+](=O)([O-])c2cccc3cnccc23)cc1)C(=O)N1CCN(c2ccccc2)CC1)[S+](=O)([O-])c1cccc2cnccc12 (centres undefined), the cell viability [1] is reported as 102%, the cell viability [2] is reported as 103% and the cell viability [3] is reported as 106%. It also gave a cell viability [4] of 110%, a cell viability [5] of 114% and a cell viability [6] of 105%. The cell viability [7] was 114%, the cell viability [8] was 102% and the cell viability [9] was 93.1%. The cell viability [10] was 89.2%, the cell viability [11] was 70.5% and the cell viability [12] was 107%. For the same compound, the cell viability [13] was 110%, the cell viability [14] was 109% and the cell viability [15] was 106%. For the same compound, the cell viability [16] was 108%, the cell viability [17] was 103% and the cell viability [18] was 103%. The cell viability [19] was 97.7%, the cell viability [20] was 90.6% and the cell viability [21] was 71.8%. The cell viability [22] was 57.3%, the cell viability [23] was 104% and the cell viability [24] was 108%. The cell viability [25] was 105%, the cell viability [26] was 121% and the cell viability [27] was 109%. It also gave a cell viability [28] of 105%, a cell viability [29] of 113% and a cell viability [30] of 97.8%. The cell viability [31] was 102%, the cell viability [32] was 84.8% and the cell viability [33] was 58.7%.
With O=C(NCc1ccccc1)c1csc(Nc2ccncn2)n1 the cell viability [1] was 91%, the cell viability [2] was 95.5% and the cell viability [3] was 100%. For the same compound, the cell viability [4] was 110%, the cell viability [5] was 105% and the cell viability [6] was 108%. It also gave a cell viability [7] of 103%, a cell viability [8] of 85.2% and a cell viability [9] of 62.9%. The cell viability [10] was 5.82%, the cell viability [11] was 1.69% and the cell viability [12] was 94%. The cell viability [13] was 96.1%, the cell viability [14] was 92.9% and the cell viability [15] was 104%. For the same compound, the cell viability [16] was 106%, the cell viability [17] was 94.5% and the cell viability [18] was 104%. For the same compound, the cell viability [19] was 63.7%, the cell viability [20] was 37.6% and the cell viability [21] was 5.79%. For the same compound, the cell viability [22] was 2.56%, the cell viability [23] was 93.4% and the cell viability [24] was 101%. For the same compound, the cell viability [25] was 104%, the cell viability [26] was 112% and the cell viability [27] was 106%. For the same compound, the cell viability [28] was 97.2%, the cell viability [29] was 102% and the cell viability [30] was 80.6%. The cell viability [31] was 36%, the cell viability [32] was 6.99% and the cell viability [33] was 2.78%.
Work on CC1=C(/C=C/C(C)=C/C=C/C(C)=C/C(=O)O)C(C)(C)CCC1 yielded a cell viability [1] of 116%, a cell viability [2] of 125% and a cell viability [3] of 121%. The cell viability [4] was 121%, the cell viability [5] was 127% and the cell viability [6] was 119%. It also gave a cell viability [7] of 132%, a cell viability [8] of 126% and a cell viability [9] of 123%. It also gave a cell viability [10] of 111% and a cell viability [11] of 104%.
With NC\1=N\C(=O)N(\C=C1F)[C@H]2C[C@H](O)[C@@H](CO)O2 the cell viability [1] was 118%, the cell viability [2] was 127% and the cell viability [3] was 104%. For the same compound, the cell viability [4] was 101%, the cell viability [5] was 90.6% and the cell viability [6] was 65.2%. It also gave a cell viability [7] of 43.7%, a cell viability [8] of 45.4% and a cell viability [9] of 37%. For the same compound, the cell viability [10] was 27.9% and the cell viability [11] was 36.9%.

From the supplement of paper PMC11451515
